Measurements published in article PMC10303200 (ACS Central Science, 2023).

Columns and labels:
Assay type in all cases: binding
GAL-7 [1] = molecular target: T1, GAL-7 (Homo sapiens, UniProt P47929); test: Direct native ESI-MS of the GAL-7 homodimer with a mixture of ten glycans (G2, G5-G13), 200 mM ammonium acetate, pH 6.9.; settings: SD, n = 8; read-out: Kd (nMS), Table S4
T1 construct: gene LGALS7; homodimer (monomer MW 14.94 kDa)

GAL-7 [2] = molecular target: T1, GAL-7; test: COIN-nMS of the GAL-7 homodimer with a mixture of ten glycans (G2, G5-G13), 200 mM ammonium acetate, pH 6.9.; settings: SD, n = 8; read-out: Kd (COIN-nMS), Table S4
DC-SIGN CRD [3] = molecular target: T2, DC-SIGN CRD (Homo sapiens, UniProt Q9NNX6); test: Direct native ESI-MS (submicron emitters) with a mixture of ten glycans (G2, G5, G10, G14-G20), 200 mM ammonium acetate with 2.5 mM calcium salt, pH 7.4.; parameters: gene CD209; carbohydrate recognition domain, residues 250-404, MW 17 794 Da; settings: SD, n = 6; read-out: Kd (nMS), Table S5
T2 sequence (Q9NNX6 250-404): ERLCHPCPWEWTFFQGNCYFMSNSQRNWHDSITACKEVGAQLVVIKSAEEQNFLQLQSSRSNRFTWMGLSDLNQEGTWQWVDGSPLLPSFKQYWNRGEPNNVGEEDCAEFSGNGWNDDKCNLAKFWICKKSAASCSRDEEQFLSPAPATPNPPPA

DC-SIGN CRD [4] = molecular target: T2, DC-SIGN CRD; test: COIN-nMS (submicron emitters) with a mixture of ten glycans (G2, G5, G10, G14-G20), 200 mM ammonium acetate with 2.5 mM calcium salt, pH 7.4.; parameters: gene CD209; carbohydrate recognition domain, residues 250-404, MW 17 794 Da; settings: SD, n = 6; read-out: Kd (COIN-nMS), Table S5
GAL-3C [5] = molecular target: T3, GAL-3C (Homo sapiens, UniProt P17931); test: Direct native ESI-MS with a mixture of ten glycans (G2, G5-G13), 200 mM ammonium acetate, pH 6.9.; parameters: gene LGALS3; C-terminal carbohydrate recognition domain fragment, residues 107-250; settings: SD, n = 8; read-out: Kd (nMS), Table S3
GAL-3C [6] = molecular target: T3, GAL-3C; test: COIN-nMS with a mixture of ten glycans (G2, G5-G13), 200 mM ammonium acetate, pH 6.9.; parameters: gene LGALS3; C-terminal carbohydrate recognition domain fragment, residues 107-250; settings: SD, n = 8; read-out: Kd (COIN-nMS), Table S3
[7] = molecular target: MAA (Maackia amurensis agglutinin); test: COIN-CaR-nMS; settings: native and all α2-3-linked N-glycan natural libraries and purified 3SL, 3SLN; pH 6.9
[8] = molecular target: RCA-I (Ricinus communis agglutinin) (Ricinus communis, UniProt P06750); settings: pH 6.9; read-out: Kd (Native)
DC-SIGN CRD [9] = molecular target: T2, DC-SIGN CRD; test: COIN-nMS affinity measurement; parameters: The carbohydrate recognition domain (CRD) of DC-SIGN (residues 250–404, MW 17 794 Da); made in house; settings: glycans present as a mixture (G2, G5, G10, G14-G20); average of six measurements; pH 7.4; read-out: Kd (COIN-nMS)
DC-SIGN CRD [10] = molecular target: T2, DC-SIGN CRD; test: direct nMS affinity measurement; parameters: The carbohydrate recognition domain (CRD) of DC-SIGN (residues 250–404, MW 17 794 Da); made in house; settings: glycans present as a mixture (G2, G5, G10, G14-G20); pH 7.4

T3 sequence (P17931 107-250): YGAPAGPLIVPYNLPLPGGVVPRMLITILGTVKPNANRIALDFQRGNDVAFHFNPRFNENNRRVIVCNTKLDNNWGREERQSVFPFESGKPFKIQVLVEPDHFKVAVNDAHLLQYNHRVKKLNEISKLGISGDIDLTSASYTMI
T1 sequence (P47929 whole entry): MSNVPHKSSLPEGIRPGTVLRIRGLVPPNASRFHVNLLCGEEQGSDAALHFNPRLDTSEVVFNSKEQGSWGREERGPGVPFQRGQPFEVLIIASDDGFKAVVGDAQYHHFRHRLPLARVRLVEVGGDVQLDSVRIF

| Compound | Kd (DC-SIGN CRD [3]) | Kd (DC-SIGN CRD [4]) | Kd [7] | further results |
| --- | --- | --- | --- | --- |
| CC(=O)N[C@H]1[C@@H](O[C@H]2[C@@H](O)[C@@H](CO)O[C@@H](O[C@H]3[C@H](O)[C@@H](NC(C)=O)C(O)O[C@@H]3CO)[C@@H]2O[C@@H]2O[C@@H](C)[C@@H](O)[C@@H](O)[C@@H]2O)O[C@H](CO)[C@H](O)[C@@H]1O (stereo partly drawn) [G10, α-D-GalNAc(1→3)-[α-L-Fuc(1→2)]-β-D-Gal(1→4)-D-GlcNAc] | 6010 µM | 2920 µM | – | Kd (GAL-7 [1]): 731 µM; Kd (GAL-7 [2]): 437 µM; Kd (GAL-3C [5]): 17.9 µM; Kd (GAL-3C [6]): 10.9 µM |
| OC[C@H]1O[C@H](O[C@@H]2[C@H](O)[C@@H](OC[C@H]3OC(O)[C@@H](O)[C@@H](O[C@H]4O[C@H](CO)[C@@H](O)[C@H](O)[C@@H]4O[C@H]4O[C@H](CO)[C@@H](O)[C@H](O)[C@@H]4O[C@H]4O[C@H](CO)[C@@H](O)[C@H](O)[C@@H]4O)[C@@H]3O)O[C@H](CO[C@H]3O[C@H](CO)[C@@H](O)[C@H](O)[C@@H]3O[C@H]3O[C@H](CO)[C@@H](O)[C@H](O)[C@@H]3O)[C@H]2O)[C@@H](O)[C@@H](O)[C@@H]1O (stereo partly drawn) [G14, α-D-Man-(1→2)-α-D-Man-(1→6)-[α-D-Man-(1→3)]-α-D-Man-(1→6)-[α-D-Man-(1→2)-α-D-Man-(1→2)-α-D-Man-(1→3)]-α-D-Man] | 270 µM | 260 µM | – | – |
| OC[C@H]1O[C@H](OC[C@H]2O[C@H](OC[C@H]3OC(O)[C@@H](O)[C@@H](O[C@H]4O[C@H](CO)[C@@H](O)[C@H](O)[C@@H]4O[C@H]4O[C@H](CO)[C@@H](O)[C@H](O)[C@@H]4O)[C@@H]3O)[C@@H](O)[C@@H](O[C@H]3O[C@H](CO)[C@@H](O)[C@H](O)[C@@H]3O)[C@@H]2O)[C@@H](O)[C@@H](O)[C@@H]1O (stereo partly drawn) [G16, α-D-Man-(1→3)[α-D-Man(1→6)]-α-D-Man(1→6)[α-D-Man(1→2)-α-D-Man-(1→3)]-α-D-Man] | 810 µM | 560 µM | – | – |
| CC(=O)N[C@H]1[C@H](O[C@H]2[C@@H](O)[C@@H](CO)OC(O)[C@@H]2O)O[C@H](CO)[C@@H](O[C@@H]2O[C@@H](C)[C@@H](O)[C@@H](O)[C@@H]2O)[C@@H]1O[C@@H]1O[C@H](CO)[C@H](O)[C@H](O)[C@H]1O[C@@H]1O[C@@H](C)[C@@H](O)[C@@H](O)[C@@H]1O (stereo partly shown) [G17, blood group antigen G17] | 620 µM | 550 µM | – | – |
| CC(=O)N[C@H]1[C@H](O[C@H]2[C@@H](O)[C@@H](CO)O[C@@H](O[C@H]3[C@H](O)[C@@H](O)C(O)O[C@@H]3CO)[C@@H]2O)O[C@H](CO)[C@@H](O[C@@H]2O[C@H](CO)[C@H](O)[C@H](O[C@H]3O[C@H](CO)[C@H](O)[C@H](O)[C@H]3O)[C@H]2O[C@@H]2O[C@@H](C)[C@@H](O)[C@@H](O)[C@@H]2O)[C@@H]1O (stereo partly shown) [G18, blood group antigen G18] | 3330 µM | 1870 µM | – | – |
| OC[C@H]1O[C@H](OC[C@H]2O[C@H](OC[C@H]3OC(O)[C@@H](O)[C@@H](O)[C@@H]3O)[C@@H](O)[C@@H](O[C@H]3O[C@H](CO)[C@@H](O)[C@H](O)[C@@H]3O)[C@@H]2O)[C@@H](O)[C@@H](O)[C@@H]1O (stereo partly shown) [G19, oligomannose glycan G19] | 1180 µM | 1500 µM | – | – |
| OC[C@H]1O[C@H](O[C@H]2[C@H](O)[C@@H](O)[C@@H](O[C@H]3[C@H](O)[C@@H](O)[C@@H](O[C@H]4[C@H](O)[C@@H](O)[C@@H](O[C@H]5[C@H](O)[C@@H](O)C(O)O[C@@H]5CO)O[C@@H]4CO)O[C@@H]3CO)O[C@@H]2CO)[C@H](O)[C@@H](O)[C@@H]1O (stereo partly shown) [G20, maltopentaose] | 2410 µM | 1830 µM | – | – |
| CC(=O)N[C@H]1[C@H](O[C@H]2[C@H](O)[C@@H](NC(C)=O)C(O)O[C@@H]2CO[C@@H]2O[C@@H](C)[C@@H](O)[C@@H](O)[C@@H]2O)O[C@H](CO)[C@@H](O[C@@H]2O[C@H](CO[C@H]3O[C@H](CO)[C@@H](O)[C@H](O)[C@@H]3O[C@@H]3O[C@H](CO)[C@@H](O[C@@H]4O[C@H](CO)[C@H](O)[C@H](O)[C@H]4O)[C@H](O)[C@H]3NC(C)=O)[C@@H](O)[C@H](O[C@H]3O[C@H](CO)[C@@H](O)[C@H](O)[C@@H]3O[C@@H]3O[C@H](CO)[C@@H](O[C@@H]4O[C@H](CO[C@]5(C(=O)O)C[C@H](O)[C@@H](NC(C)=O)[C@H]([C@H](O)[C@H](O)CO)O5)[C@H](O)[C@H](O)[C@H]4O)[C@H](O)[C@H]3NC(C)=O)[C@@H]2O)[C@@H]1O (stereo partly shown) [HexNAc4Hex5Fuc1NeuAc1] | – | – | 0.57 ± 0.16 µM | – |
| CC(=O)N[C@H]1[C@H](O[C@H]2[C@H](O)[C@@H](NC(C)=O)C(O)O[C@@H]2CO[C@@H]2O[C@@H](C)[C@@H](O)[C@@H](O)[C@@H]2O)O[C@H](CO)[C@@H](O[C@@H]2O[C@H](CO[C@H]3O[C@H](CO)[C@@H](O)[C@H](O)[C@@H]3O[C@@H]3O[C@H](CO)[C@@H](O[C@@H]4O[C@H](CO[C@]5(C(=O)O)C[C@H](O)[C@@H](NC(C)=O)[C@H]([C@H](O)[C@H](O)CO)O5)[C@H](O)[C@H](O)[C@H]4O)[C@H](O)[C@H]3NC(C)=O)[C@@H](O)[C@H](O[C@H]3O[C@H](CO)[C@@H](O)[C@H](O)[C@@H]3O[C@@H]3O[C@H](CO)[C@@H](O[C@@H]4O[C@H](CO[C@]5(C(=O)O)C[C@H](O)[C@@H](NC(C)=O)[C@H]([C@H](O)[C@H](O)CO)O5)[C@H](O)[C@H](O)[C@H]4O)[C@H](O)[C@H]3NC(C)=O)[C@@H]2O)[C@@H]1O (stereo partly shown) [HexNAc4Hex5Fuc1NeuAc2] | – | – | 0.39 ± 0.08 µM | – |
| CC(=O)N[C@H]1[C@H](O[C@H]2[C@H](O)[C@@H](NC(C)=O)C(O)O[C@@H]2CO[C@@H]2O[C@@H](C)[C@@H](O)[C@@H](O)[C@@H]2O)O[C@H](CO)[C@@H](O[C@@H]2O[C@H](CO[C@H]3O[C@H](CO)[C@@H](O)[C@H](O)[C@@H]3O[C@@H]3O[C@H](CO)[C@@H](O[C@@H]4O[C@H](CO)[C@H](O)[C@H](O)[C@H]4O)[C@H](O)[C@H]3NC(C)=O)[C@@H](O)[C@H](O[C@H]3O[C@H](CO)[C@@H](O)[C@H](O)[C@@H]3O[C@@H]3O[C@H](CO)[C@@H](O[C@@H]4O[C@H](CO)[C@H](O)[C@H](O)[C@H]4O)[C@H](O)[C@H]3NC(C)=O)[C@@H]2O)[C@@H]1O (stereo partly shown) [HexNAc4Hex5Fuc1] | – | – | – | Kd [8]: 1.4 ± 0.4 µM |
| CC(=O)N[C@H]1[C@H](O[C@H]2[C@H](O)[C@@H](NC(C)=O)C(O)O[C@@H]2CO)O[C@H](CO)[C@@H](O[C@@H]2O[C@H](CO[C@H]3O[C@H](CO)[C@@H](O)[C@H](O)[C@@H]3O[C@@H]3O[C@H](CO)[C@@H](O[C@@H]4O[C@H](CO[C@]5(C(=O)O)C[C@H](O)[C@@H](NC(C)=O)[C@H]([C@H](O)[C@H](O)CO)O5)[C@H](O)[C@H](O)[C@H]4O)[C@H](O)[C@H]3NC(C)=O)[C@@H](O)[C@H](O[C@H]3O[C@H](CO)[C@@H](O)[C@H](O)[C@@H]3O[C@@H]3O[C@H](CO)[C@@H](O[C@@H]4O[C@H](CO[C@]5(C(=O)O)C[C@H](O)[C@@H](NC(C)=O)[C@H]([C@H](O)[C@H](O)CO)O5)[C@H](O)[C@H](O)[C@H]4O)[C@H](O)[C@H]3NC(C)=O)[C@@H]2O)[C@@H]1O (stereo partly shown) [HexNAc4Hex5NeuAc2] | – | – | 0.52 ± 0.2 µM | – |
| CC(=O)N[C@H]1[C@H](O[C@H]2[C@H](O)[C@@H](NC(C)=O)C(O)O[C@@H]2CO)O[C@H](CO)[C@@H](O[C@@H]2O[C@H](CO[C@H]3O[C@H](CO)[C@@H](O)[C@H](O)[C@@H]3O[C@@H]3O[C@H](CO)[C@@H](O[C@@H]4O[C@H](CO[C@]5(C(=O)O)C[C@H](O)[C@@H](NC(=O)CO)[C@H]([C@H](O)[C@H](O)CO)O5)[C@H](O)[C@H](O)[C@H]4O)[C@H](O)[C@H]3NC(C)=O)[C@@H](O)[C@H](O[C@H]3O[C@H](CO)[C@@H](O)[C@H](O)[C@@H]3O[C@@H]3O[C@H](CO)[C@@H](O[C@@H]4O[C@H](CO[C@]5(C(=O)O)C[C@H](O)[C@@H](NC(=O)CO)[C@H]([C@H](O)[C@H](O)CO)O5)[C@H](O)[C@H](O)[C@H]4O)[C@H](O)[C@H]3NC(C)=O)[C@@H]2O)[C@@H]1O (stereo partly shown) [HexNAc4Hex5NeuGc2] | – | – | 0.49 ± 0.2 µM | – |
| α-D-Man-(1→2)-α-D-Man-(1→3)-[α-D-Man-(1→6)-[α-D-Man-(1→2)-α-D-Man-(1→3)]-α-D-Man [Glycan G15] | – | – | – | Kd (DC-SIGN CRD [9]): 410 ± 40 µM; Kd (DC-SIGN CRD [10]): 390 ± 50 µM |
